Here are results for three compounds from PMC11131023, “Oral delivery of nanomedicine for genetic kidney disease” (PNAS Nexus, 2024).

A short description of series [1]: Kidney health in ADPKD mice (i-Stat Chem-8+ blood analysis). Format: in vivo, mouse. As to the method:
On the day of harvest, 90 µL of blood taken from the submandibular vein was analyzed using Chem-8+ cartridges for the i-Stat Handheld Blood Analyzer (Abbott, Chicago, IL, USA). Kidney health markers including measurements of plasma sodium (Na), potassium (K), chloride (Cl), ionized calcium (iCa), total carbon dioxide (tCO2), glucose (Glu), BUN/urea, creatinine (Crea), hematocrit (Hct), and hemoglobin (Hb) were evaluated.

The nature of series [2]: Biodistribution after oral gavage (ex vivo organ Cy7 fluorescence). As to conditions: 200 μL of 500 µM Cy7-labeled, 24 h, ex vivo imaging, N = 4. The protocol: All animal procedures followed NIH guidelines for the care and use of laboratory animals and were approved by the University of Southern California's Institutional Animal Care and Use Committee. […] Mice were euthanized 24 h postinjection and organs (e.g. brain, heart, lungs, liver, kidneys, spleen, intestines, and bladder) were excised, imaged ex vivo on an AMI HTX in vivo imaging system, and the fluorescence signal was quantified via Aura software (Spectral Instruments Imaging, Tucson, AZ, USA, n ≥ 4). The mean radiance (photons/s/cm^2/sr) for each organ was quantified as a region of interest, and % of total organ fluorescence was obtained by dividing the fluorescence level of each organ by the sum of all the organ regions. Background was subtracted from the PBS-treated group.

In series [3] the test system is AMPK. Put plainly: Intestine-kidney in vitro Transwell model, phospho-AMPK ELISA. Format: cell-based, mouse. As to conditions: mpkCCDc14 cells below Caco-2 cells on Transwell, after 12 hours, N ≥ 3. As to the method: To collect cysts grown in Matrigel, cysts were kept on ice for 1 h to liquidize the Matrigel and centrifuged at 400×g for 5 min to collect the cyst in the pellet. All standards and samples were measured on a Varioskan LUX microplate reader at a wavelength of 450 nm. The phospho-AMPK to total AMPK ratio was normalized to the PBS group and presented in percentage.
For orientation: In an ELISA, binding on a coated surface is turned into a signal by an enzyme label.

Series [4] concerns Caco-2 cells. Put plainly: TER measurement of Caco-2 monolayers after CP treatment. Format: cell-based, human. As to conditions: Caco-2 monolayer, up to 3 days after administration. As to the method:
In addition to protection against an acidic environment mimicking the stomach, chitosan has been reported to open tight junctions within the intestinal epithelium and increase bioavailability in vivo ([51]). […] TER was measured three days before treatment and again after administration of nanoparticles or free drug for up to 3 days.
TER measurements were performed using an EVOM2 Epithelial Voltohmmeter (World Precision Instruments, USA).

Details of series [5]: method as in PMID 24211079. As to conditions: cited from earlier work.
The conditions of series [6]: cited from earlier work. An excerpt:
The primary obstacle in the current management of kidney disease lies in the inadequate drug concentration within the kidney. This limitation is particularly evident in the case of ADPKD, where the only FDA-approved treatment, tolvaptan, achieves ∼5.7% accumulation in the kidney after oral administration ([62]). Similarly, in our study, ∼4.5% of free metformin accumulated in the kidney. Given the pronounced deficiency in kidney bioavailability observed with free drugs, our innovative oral kidney-targeting nanoformulation emerges as a promising solution to the current clinical challenges by pro ...

The mark [7] stands for this setting: oral every 3 days P30-P120, day of harvest.

`CN(C)C(=N)N=C(N)N` [free metformin, metformin] yielded a Na in series [1] (oral every 3 days P30-P120, blood from submandibular vein, day of harvest) of 144.6 ± 1.6 mmol/L. In series [1] (setting [7]), this compound displayed a BUN/Urea of 22.8 ± 7.8 md/dL, a Cl of 113.0 ± 3.2 mmol/L, a Crea of less than 0.2 md/dL and a Glu of 220 ± 24.4 mg/dL. Besides, in series [1] (setting [7]), the Hb was 12.8 ± 0.9 g/dL, the Hct is 37.4 ± 3.0 PCV, the K was 5.9 ± 1.4 mmol/L and the iCa came to 1.1 ± 0.2 mmol/L. In series [1] (setting [7]), this compound showed a tCO2 of 23.1 ± 0.8 mmol/L. Moreover, the “kidney accumulation (% of total organ fluorescence)” value in series [2] is approximately 4.5%. In addition, the “phosphorylated AMPK to total AMPK” value in series [3] is given as 1.3 ± 0.4. Also, in series [4], the “change in TER” value is listed as “no changes in TER”.
As for “Cy7-DSPE-PEG2000-(KKEEE)3K [free amphiphilic monomers, unassembled kidney-targeting amphiphiles]”, the critical micelle concentration in series [5] is approximately 1 µM.
As for `Cc1ccccc1C(=O)Nc1ccc(C(=O)N2CCCC(O)c3cc(Cl)ccc32)c(C)c1` (stereo not drawn) [tolvaptan], in series [6], the “accumulation in the kidney after oral administration” value was approximately 5.7%.
